In ChEMBL document CHEMBL1126161, “3,4-Dihydroquinolin-2(1H)-ones as combined inhibitors of thromboxane A2 synthase and cAMP phosphodiesterase” (J Med Chem, 1992):
Blank lines part the entries; values can stand above or below the molecule they belong to.

Columns and labels:
Homo sapiens [1] = organism: Homo sapiens; assay: In vitro inhibition of ADP-induced aggregation of human PRP in the presence of pig aortal microsomes (PAM).; type: functional
Rattus norvegicus [2] = assay: Antihypertensive activity in conscious spontaneously hypertensive rat (SHR), percent change in Systolic blood pressure (SBP) after 1 hr; type: functional; parameters: concentration or dose not given beside the values
Rattus norvegicus [3] = assay: Antihypertensive activity in conscious spontaneously hypertensive rat (SHR), percent change in Systolic blood pressure (SBP) after 4 hr at 10 mg/kg peroral dose; type: functional; details: route oral
Rattus norvegicus [4] = assay: Antihypertensive activity in conscious spontaneously hypertensive rat (SHR), percent change in heart rate (beats/min) after 1 hr at 10 mg/kg peroral dose; type: functional; details: route oral
Rattus norvegicus [5] = assay: Antihypertensive activity in conscious spontaneously hypertensive rat (SHR), percent change in heart rate (beats/min) after 2 hr at 10 mg/kg peroral dose; type: functional; details: route oral
Rattus norvegicus [6] = assay: Antihypertensive activity in conscious spontaneously hypertensive rat (SHR), percent change in Systolic blood pressure (SBP) after 2 hr at 10 mg/kg peroral dose; type: functional; details: route oral
Rattus norvegicus [7] = assay: Antihypertensive activity in conscious spontaneously hypertensive rat (SHR), percent change in heart rate (beats/min) after 4 hr at 10 mg/kg peroral dose; type: functional; details: route oral
Homo sapiens [8] = organism: Homo sapiens; assay: Ratio of IC50(w/oPAM)/IC50(w/PAM); type: functional
Homo sapiens [9] = organism: Homo sapiens; assay: Ratio of IC50(PDE)/IC50(TXA2); type: functional
Phosphodiesterase 3 = Phosphodiesterase 3 (Homo sapiens, UniProt Q14432+Q13370); assay: Inhibition of human blood platelet c-AMP phosphodiesterase
Homo sapiens [10] = organism: Homo sapiens; assay: Inhibition of ADP-induced aggregation of human PRP in the absence of pig aortal microsomes (PAM); type: functional
Thromboxane-A synthase [11] = biological target: T1, Thromboxane-A synthase (Homo sapiens, UniProt P24557); assay: Compound was evaluated for the inhibition of human blood platelet, thromboxane A2 synthase
T1 sequence (P24557 whole entry): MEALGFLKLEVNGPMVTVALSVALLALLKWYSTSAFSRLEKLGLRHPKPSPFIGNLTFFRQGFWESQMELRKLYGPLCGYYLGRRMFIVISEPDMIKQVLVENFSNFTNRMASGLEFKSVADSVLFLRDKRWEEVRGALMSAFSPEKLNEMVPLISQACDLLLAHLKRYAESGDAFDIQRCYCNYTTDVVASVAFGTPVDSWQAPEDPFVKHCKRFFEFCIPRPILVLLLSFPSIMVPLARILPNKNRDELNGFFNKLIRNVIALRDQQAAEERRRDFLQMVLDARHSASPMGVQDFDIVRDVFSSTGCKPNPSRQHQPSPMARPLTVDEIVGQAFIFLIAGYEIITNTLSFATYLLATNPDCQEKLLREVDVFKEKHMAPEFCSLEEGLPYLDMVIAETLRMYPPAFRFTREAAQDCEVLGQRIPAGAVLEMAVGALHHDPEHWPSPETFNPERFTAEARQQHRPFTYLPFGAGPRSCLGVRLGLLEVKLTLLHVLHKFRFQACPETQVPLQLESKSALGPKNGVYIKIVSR

Thromboxane-A synthase [12] = biological target: T1, Thromboxane-A synthase; assay: Compound was evaluated for the inhibition of human blood platelet thromboxane A2 synthase
Rattus norvegicus [13] = assay: Antihypertensive activity in conscious spontaneously hypertensive rat (SHR), percent change in Systolic blood pressure (SBP) after 1 hr at 10 mg/kg peroral dose; type: functional; details: route oral
Mus musculus [14] = organism: Mus musculus; assay: Time course of protection against mortality in a pulmonary thromboembolism model in mice after -1h; type: functional
Mus musculus [15] = assay: Protection against mortality in pulmonary thromboembolism model in mice at 1 mg/kg; type: functional
Homo sapiens [16] = organism: Homo sapiens; assay: Inhibition of ADP-induced platelet aggregation of human PRP in the presence of pig aortal microsomes (PAM); type: functional
Mus musculus [17] = organism: Mus musculus; assay: Time course of protection against mortality in a pulmonary thromboembolism model in mice after -5h; type: functional
Homo sapiens [18] = organism: Homo sapiens; assay: Inhibition of ADP-induced platelet aggregation of human PRP without pig aortal microsomes (PAM); type: functional
Mus musculus [19] = organism: Mus musculus; assay: Time course of protection against mortality in a pulmonary thromboembolism model in mice after -3h; type: functional
Mus musculus [20] = assay: Protection against mortality in pulmonary thromboembolism model in mice at 12 mg/kg; type: functional
Mus musculus [21] = assay: Protection against mortality in pulmonary thromboembolism model in mice at 3 mg/kg; type: functional
Mus musculus [22] = organism: Mus musculus; assay: Time course of protection against mortality in a pulmonary thromboembolism model in mice after -7h; type: functional
Mus musculus [23] = assay: Protection against mortality in pulmonary thromboembolism model in mice at 9 mg/kg; type: functional
Mus musculus [24] = assay: Protection against mortality in pulmonary thromboembolism model in mice at 30 mg/kg; type: functional

IC50 (Homo sapiens [1]): 8.5 µM
Compound: O=C1CCc2cc(CCc3cccnc3)ccc2N1

Compound: O=C1CCc2cc(C#CCn3ccnc3)ccc2N1
Change systolic BP (Rattus norvegicus [2]): -3%
Change systolic BP (Rattus norvegicus [3]): -15%
Change in heart rate (Rattus norvegicus [4]): 9%
Change in heart rate (Rattus norvegicus [5]): 11%
Change systolic BP (Rattus norvegicus [6]): -5%
Change in heart rate (Rattus norvegicus [7]): 11%

IC50 (Phosphodiesterase 3): 4 µM
IC50 (Homo sapiens [10]): 2.8 µM
IC50 (Homo sapiens [1]): 0.38 µM
Compound: Oc1ccc2cc(/C=C/n3ccnc3)ccc2n1
Ratio (Homo sapiens [8]): 7.4
Ratio (Homo sapiens [9]): 10.5

IC50 (Homo sapiens [10]): 74 µM
IC50 (Homo sapiens [1]): 7.6 µM
Compound: C=C(Cn1ccnc1)c1ccc2c(c1)CCC(=O)N2
Ratio (Homo sapiens [8]): 9.7

IC50 (Homo sapiens [10]): 350 µM
IC50 (Homo sapiens [1]): 5.5 µM
Compound: CC(Cn1ccnc1)c1ccc2c(c1)CCC(=O)N2 (centres undefined)
Ratio (Homo sapiens [8]): 64

IC50 (Homo sapiens [1]): 200 µM
Compound: O=C1CCc2cc(C(Cn3ccnc3)c3ccccc3)ccc2N1 (centres undefined)

IC50 (Homo sapiens [1]): 170 µM
Compound: O=C1CCc2cc(/C(=C/c3cccnc3)c3ccccc3)ccc2N1

IC50 (Thromboxane-A synthase [11]): 0.38 µM
Compound: O=c1ccc2cc(/C=C/n3ccnc3)ccc2[nH]1

IC50 (Homo sapiens [10]): 13 µM
IC50 (Homo sapiens [1]): 1.6 µM
Compound: C/C(=C\n1ccnc1)c1ccc2c(c1)CCC(=O)N2
Ratio (Homo sapiens [8]): 8.1

IC50 (Homo sapiens [10]): 240 µM
IC50 (Homo sapiens [1]): 11 µM
Compound: O=C1CCc2cc(C#Cc3cccnc3)ccc2N1
Ratio (Homo sapiens [8]): 22
Change systolic BP (Rattus norvegicus [2]): -13%
Change systolic BP (Rattus norvegicus [3]): -5%
Change in heart rate (Rattus norvegicus [4]): 4%
Change in heart rate (Rattus norvegicus [5]): 15%
Change systolic BP (Rattus norvegicus [6]): -6%
Change in heart rate (Rattus norvegicus [7]): 22%

IC50 (Homo sapiens [1]): 35 µM
Compound: CC(Cc1cccnc1)c1ccc2c(c1)CCC(=O)N2 (centres undefined)

IC50 (Thromboxane-A synthase [12]): 25 µM
IC50 (Phosphodiesterase 3): 14 µM
IC50 (Homo sapiens [1]): 25 µM
Compound: CCCCCC(Cn1ccnc1)c1ccc2c(c1)CCC(=O)N2 (centres undefined)

Compound: Cc1[nH]c(=O)c(C#N)cc1-c1ccncc1 [MILRINONE]
Change systolic BP (Rattus norvegicus [3]): -47%
Change in heart rate (Rattus norvegicus [4]): 11%
Change in heart rate (Rattus norvegicus [5]): 36%
Change systolic BP (Rattus norvegicus [13]): -65%
Change systolic BP (Rattus norvegicus [6]): -54%
Change in heart rate (Rattus norvegicus [7]): 45%

Compound: Cc1c(Cn2ccnc2)c2ccccc2n1CCC(=O)O [DAZMEGREL]
Survival (Mus musculus [14]): 11%
survival at 1 mg/kg (Mus musculus [15]): 30%
IC50 (Homo sapiens [16]): 2 µM
Survival (Mus musculus [17]): 0%
IC50 (Homo sapiens [18]): 97 µM
Survival (Mus musculus [19]): 20%
survival at 12 mg/kg (Mus musculus [20]): 60%
survival at 3 mg/kg (Mus musculus [21]): 30%
Survival (Mus musculus [22]): 10%
survival at 9 mg/kg (Mus musculus [23]): 50%
survival at 30 mg/kg (Mus musculus [24]): 20%
